Counter-ions that a name gives are not always drawn.

From patent US9145408B2 (priority 2008, dated 2015) come the findings set out here.

Data set [1] has as its system FCA-induced thermal hyperalgesia. Briefly: FCA model of inflammatory pain, thermal hyperalgesia. It is filed as in vivo. Conditions: rat FCA model. On the procedure: (§1) Test Animals: Each experiment used rats weighing between 200-260 g at the start of the experiment. The rats were group-housed and had free access to food and water at all times, except prior to oral administration of a Substituted-Quinoxaline-Type Bridged-Piperidine Compound when food was removed for 16 hours before dosing. A control group acted as a comparison to rats treated with a Substituted-Quinoxaline-Type Bridged-Piperidine Compound. The control group was administered the carrier for the Substituted-Quinoxaline-Type Bridged-Piperidine Compound. The volume of carrier administered to the control group was the same as the volume of carrier and Substituted-Quinoxaline-Type Bridged-Piperidine Compound administered to the test group.
Inflammatory Pain: To assess the actions of a Substituted-Quinoxaline-Type Bridged-Piperidine Compound for the treatment or prevention of inflammatory pain, the Freund's complete adjuvant (“FCA”) model of inflammatory pain was used. […] The left hind paw of each animal was administered a 50 μL intraplantar injection of 50% FCA. 24 hour post injection, the animal was assessed for response to noxious mechanical stimuli by determining the PWT, or to noxious thermal stimuli by determining the PWL, as described below. […] Responses to noxious mechanical stimuli were then determined 1, 3, 5 and 24 hours post administration. Percentage reversal of hyperalgesia for each animal was defined as: […]
Response to Thermal Stimuli as an Assessment of Thermal Hyperalgesia: The plantar test can be used to assess thermal hyperalgesia. For this test, hind paw withdrawal latencies (PWL) to a noxious thermal stimulus were determined using a plantar test apparatus (commercially available from Ugo Basile of Italy) following the technique described by K. Hargreaves et al., “A New and Sensitive Method for Measuring Thermal Nociception in Cutaneous Hyperalgesia,” Pain 32(1):77-88 (1988). The maximum exposure time was set at 32 seconds to avoid tissue damage and any directed paw withdrawal from the heat source was taken as the end point. Three latencies were determined at each time point and averaged. Either only the affected (ipsilateral) paw was tested, or both the ipsilateral and contralateral (non-injured) paw were tested.

Data set [2] can be described thus: abnormal behavioral side effects (sedation, hyperactivity, hypoactivity). Particulars: in vivo.
The test system of data set [3] is nerve injury-induced mechanical hyperalgesia. Briefly: Seltzer partial sciatic nerve ligation model of neuropathic pain, mechanical hyperalgesia. Conditions: rat Seltzer model, 3 mg/kg. It is filed as in vivo. On the procedure: as §1
Partial ligation of the left sciatic nerve was performed under isoflurane/O2 inhalation anesthesia. Following induction of anesthesia, the left thigh of the rat was shaved and the sciatic nerve exposed at high thigh level through a small incision and was carefully cleared of surrounding connective tissues at a site near the trocanther just distal to the point at which the posterior biceps semitendinosus nerve branches off of the common sciatic nerve. A 7-0 silk suture was inserted into the nerve with a ⅜ curved, reversed-cutting mini-needle and tightly ligated so that the dorsal ⅓ to ½ of the nerve thickness was held within the ligature. The wound was closed with a single muscle suture (4-0 nylon (Vicryl)) and vetbond tissue glue. Following surgery, the wound area was dusted with antibiotic powder. Sham-treated rats underwent an identical surgical procedure except that the sciatic nerve was not manipulated. Following surgery, animals were weighed and placed on a warm pad until they recovered from anesthesia. Animals were then returned to their home cages until behavioral testing began. The animals were assessed for response to noxious mechanical stimuli by determining PWT, as described below, prior to surgery (baseline), then immediately prior to and 1, 3, and 5 hours after drug administration for rear paw of the animal. Percentage reversal of neuropathic hyperalgesia was defined as: […]
Response to Mechanical Stimuli as an Assessment of Mechanical Hyperalgesia: The paw pressure assay was used to assess mechanical hyperalgesia. For this assay, hind paw withdrawal thresholds (PWT) to a noxious mechanical stimulus were determined using an analgesymeter (Model 7200, commercially available from Ugo Basile of Italy) as described in C. […] The maximum weight that could be applied to the hind paw was set at 250 g and the end point is taken was complete withdrawal of the paw. PWT was determined once for each rat at each time point and either only the affected (ipsilateral) paw was tested, or both the ipsilateral and contralateral (non-injured) paw were tested.

For data set [4], the target named is hERG (human ether a-go-go gene) (Homo sapiens (Human), UniProt Q12809). Briefly: cardiovascular side effects: in vitro hERG assay and APD in guinea pig purkinje fibers. In kind it is cell-based. Conditions: in vitro hERG assay; APD in guinea pig purkinje fibers. On the procedure: These side effects were determined using known methods: an in vitro hERG (human ether a-go-go gene) assay as disclosed in Z. Zhou et al., “Properties of HERG Channels Stably Expressed in HEK 293 Cells Studied at Physiological Temperature,” Biophysical J. 74:230-241 (1998); and APD (action potential duration) in guinea pig purkinje fibers as disclosed in J. A. Hey, “The Guinea Pig Model for Assessing Cardiotoxic Proclivities of Second Generation Antihistamines,” Arzneimittelforschung 46(8):834-837 (1996).
A general note: Block of hERG is tested as a sign of cardiac risk.

[5] abbreviates: 5 mg/kg dose, 3 hours after administration.
[6] abbreviates: 5 mg/kg dose, 5 hours after administration.

With `O=C(O)c1nc2ccccc2n([C@H]2C[C@H]3CC[C@@H](C2)N3C2CCCCCCCCCC2)c1=O` [Compound 358], the “% reversal of thermal hyperalgesia” value in data set [1] (5 mg/kg dose, 1 hour after administration) was 34%; in data set [1] (setting [5]) it was 46%; in data set [1] (setting [6]), 79%. In data set [2], the “abnormal behavioral side effects, such as sedation, hyperactivity and/or hypoactivity” value (from here on “abnormal behavioral side effects, such”) is given as “reduced abnormal behavioral side effects”.

For `O=C(O)c1nc2ccccc2n([C@H]2C[C@H]3CC[C@@H](C2)N3[C@H]2C[C@@H]3CCC[C@@H](C3)C2)c1=O` [Compound 361, 4-((endo)-8-((exo)-bicyclo[3.3.1]nonan-3-yl)-8-azabicyclo[3.2.1]octan-3-yl)-3-oxo-3,4-dihydroquinoxaline-2-carboxylic acid], the “% reversal of thermal hyperalgesia” value in data set [1] (setting [5]) is on record as 90%; in data set [1] (setting [6]) it was 70%. Further, the “abnormal behavioral side effects, such” value in data set [2] was “reduced abnormal behavioral side effects”.

With `O=C(O)c1nc2ccccc2n([C@H]2C[C@H]3CCC[C@@H](C2)N3C2CC3CCCC(C3)C2)c1=O` (stereo partly drawn) [Compound 362, 4-((endo)-9-((exo)-bicyclo[3.3.1]nonan-3-yl)-9-azabicyclo[3.3.1]nonan-3-yl)-3-oxo-3,4-dihydroquinoxaline-2-carboxylic acid], the “% reversal of thermal hyperalgesia” value in data set [1] (3 mg/kg dose, 1 hour after administration) was determined as 86%; in data set [1] (3 mg/kg dose, 3 hours after administration), 51%; in data set [1] (3 mg/kg dose, 5 hours after administration), 27%. Further, the entries for the “ED50 value for reversal of thermal hyperalgesia” value in data set [1] (1 hour after administration), in data set [1] (3 hours after administration) and in data set [1] (5 hours after administration) were 0.8 mg/kg, 1.5 mg/kg and 3.0 mg/kg, respectively. Further, the “% reversal of mechanical hyperalgesia” value was found to be 60% in data set [3] (1 hour after administration), 60% in data set [3] (3 hours after administration), 50% in data set [3] (5 hours after administration) and 40% in data set [3] (7 hours after administration). In data set [2], the “abnormal behavioral side effects, such” value is on record as “reduced abnormal behavioral side effects”. Besides, the cardiovascular side effects entry in data set [4] is on record as “reduced cardiovascular side effects”.

For `C[C@@H]1C[C@@H]2C[C@H](C1)C[C@@H](N1[C@@H]3CCC[C@H]1C[C@@H](n1c(=O)c(C(=O)O)nc4ccccc41)C3)C2` [Compound 405, (exo, endo, endo)-4-(9-(7-methylbicyclo[3.3.1]nonan-3-yl)-9-azabicyclo[3.3.1]nonan-3-yl)-3-oxo-3,4-dihydroquinoxaline-2-carboxylic acid potassium salt], the “% reversal of mechanical hyperalgesia” value in data set [3] (1 hour after administration), in data set [3] (3 hours after administration) and in data set [3] (5 hours after administration) was 70% throughout.
